# Experimental data as given in patent US20220248678A1, “HERBICIDAL COMPOUNDS” (SYNGENTA CROP PROTECTION AG, priority 2019, published 2022).
# Tests used:
# Test in all cases: Post-emergence efficacy, glasshouse
# Assay type in all cases: in vivo
# Details in all cases: after 13 days, 100=total damage to plant, 0=no damage to plant
# [1] = system: Setaria faberi (SETFA)
# Protocol: (§1) Seeds of a variety of test species were shown in standard soil in pots. After cultivation for 14 days (post-emergence) under controlled conditions in a glasshouse (at 24/16° C., day/night; 14 hours light; 65% humidity), the plants were sprayed with an aqueous spray solution derived from the dissolution of the technical active ingredient for each of compounds 1 to 26 from Table A above, in a small amount of acetone and a special solvent and emulsifier mixture referred to as IF50 (11.12% Emulsogen EL360 TM+44.44% N-methylpyrrolidone+44.44% Dowanol DPM glycol ether), to create a 50 g/I solution which was then diluted to required concentration using 0.25% or 1% Empicol ESC70 (Sodium lauryl ether sulphate)+1% ammonium sulphate in water as diluent. These spray test compositions are described as composition numbers C1 to C26, with the numerical value corresponding to the compound number from Table A.
# (§2) The test plants were then grown in a glasshouse under controlled conditions (at 24/16° C., day/night; 14 hours light; 65% humidity) and watered twice daily. After 13 days the test was evaluated (100=total damage to plant; 0=no damage to plant).
# (§3) Ipomoea hederacea (IPOHE), Euphorbia heterophylla (EPHHL), Chenopodium album (CHEAL), Amaranthus palmeri (AMAPA), Lolium perenne (LOLPE), Digitaria sanguinalis (DIGSA), Eleusine indica (ELEIN), Echinochloa crus-galli (ECHCG), Setaria faberi (SETFA)
# [2] = system: Lolium perenne (LOLPE)
# Protocol: as §1, §2, §3
# [3] = system: Echinochloa crus-galli (ECHCG)
# Protocol: as §1, §2, §3
# [4] = system: Chenopodium album (CHEAL)
# Protocol: as §1, §2, §3
# [5] = system: Digitaria sanguinalis (DIGSA)
# Protocol: as §1, §2, §3
# [6] = system: Ipomoea hederacea (IPOHE)
# Protocol: as §1, §2, §3
# [7] = system: Euphorbia heterophylla (EPHHL)
# Protocol: as §1, §2, §3
# [8] = system: Amaranthus palmeri (AMAPA)
# Protocol: as §1, §2, §3
# [9] = system: Eleusine indica (ELEIN)
# Protocol: as §1, §2, §3
Compound,Control of weed species SETFA ([1]; 1000 g/Ha),Control of weed species LOLPE ([2]; 1000 g/Ha),Control of weed species ECHCG ([3]; 1000 g/Ha),Control of weed species CHEAL ([4]; 1000 g/Ha),Control of weed species DIGSA ([5]; 1000 g/Ha),Control of weed species IPOHE ([6]; 1000 g/Ha),Control of weed species EPHHL ([7]; 1000 g/Ha),Control of weed species AMAPA ([8]; 1000 g/Ha),Control of weed species ELEIN ([9]; 1000 g/Ha),Control of weed species SETFA ([1]; 500 g/Ha),Control of weed species LOLPE ([2]; 500 g/Ha),Control of weed species ECHCG ([3]; 500 g/Ha),Control of weed species CHEAL ([4]; 500 g/Ha),Control of weed species DIGSA ([5]; 500 g/Ha),Control of weed species IPOHE ([6]; 500 g/Ha),Control of weed species EPHHL ([7]; 500 g/Ha),Control of weed species AMAPA ([8]; 500 g/Ha),Control of weed species ELEIN ([9]; 500 g/Ha)
CCOP(=O)(O)c1c[n+](C)nc2ccccc12.O=C([O-])C(F)(F)F [Composition C1],80,60,70,100,90,100,100,90,90,,,,,,,,,
CCCCOP(=O)(O)c1c[n+](C)nc2ccccc12.O=C([O-])C(F)(F)F [Composition C2],,,,,,,,,,60,30,30,70,60,80,100,60,40
CCOP(=O)(O)c1c[n+](C)nc2ccccc12.[Cl-] [Composition C3],90,50,70,100,100,100,100,90,90,,,,,,,,,
C#CCOP(=O)([O-])c1c[n+](C)nc2ccccc12 [Composition C4],100,90,90,100,100,100,100,100,100,,,,,,,,,
C=CCOP(=O)([O-])c1c[n+](C)nc2ccccc12 [Composition C5],,,,,,,,,,80,60,90,100,90,70,90,90,100
C[n+]1cc(P(=O)([O-])OCC(F)(F)F)c2ccccc2n1 [Composition C6],90,80,100,100,100,100,100,100,100,,,,,,,,,
C[n+]1cc(P(=O)([O-])OCC2CC2)c2ccccc2n1 [Composition C7],90,60,80,90,100,100,100,90,100,,,,,,,,,
CC(C)OP(=O)([O-])c1c[n+](C)nc2ccccc12 [Composition C8],90,50,100,100,100,100,100,100,100,,,,,,,,,
